Values quoted from earlier work, collected in Sander's compilation of Henry's law constants (doi:10.1080/10643389609388492).

Experiment: Henry solubility constant Hcp at 298.15 K (mol/(m3 Pa))
Conditions: reference: Staudinger and Roberts (1996); cited value

Q: Which “Henry solubility constant Hcp” value does the source give for `CC(Cl)(Cl)Cl` [1,1,1-trichloroethane] here?
A: 0.00058

Q: For `ClC(Cl)C(Cl)Cl` [1,1,2,2-tetrachloroethane], which “Henry solubility constant Hcp” value is on record?
A: 0.024

Q: With `ClCC(Cl)Cl` [1,1,2-trichloroethane] as the compound, how does the “Henry solubility constant Hcp” value read?
A: 0.011

Q: For `C=C(Cl)Cl` [1,1-dichloroethene], which “Henry solubility constant Hcp” value is on record?
A: 0.00034

Q: Which “Henry solubility constant Hcp” value does the source give for `ClCC(Cl)CCl` [1,2,3-trichloropropane] here?
A: 0.034

Q: For `CC(Cl)CCl` (stereo not given) [1,2-dichloropropane], which “Henry solubility constant Hcp” value is on record?
A: 0.0034

Q: Which “Henry solubility constant Hcp” value does the source give for `Cc1ccccc1C` [1,2-dimethylbenzene] here?
A: 0.0019

Q: With `Cc1cccc(C)c1` [1,3-dimethylbenzene] as the compound, how does the “Henry solubility constant Hcp” value read?
A: 0.0013

Q: For `Cc1ccc(C)cc1` [1,4-dimethylbenzene], which “Henry solubility constant Hcp” value is on record?
A: 0.0013

Q: Which “Henry solubility constant Hcp” value does the source give for `O=Cc1ccccc1` [benzaldehyde] here?
A: 0.39

Q: For `c1ccccc1` [benzene], which “Henry solubility constant Hcp” value is on record?
A: 0.0016

Q: For `ClC(Cl)Br` [bromodichloromethane], which “Henry solubility constant Hcp” value is on record?
A: 0.004

Q: With `Clc1ccccc1` [chlorobenzene] as the compound, how does the “Henry solubility constant Hcp” value read?
A: 0.0027

Q: Which “Henry solubility constant Hcp” value does the source give for `CCCl` [chloroethane] here?
A: 0.00083

Q: With `C=CCl` [chloroethene] as the compound, how does the “Henry solubility constant Hcp” value read?
A: 0.00039

Q: With `ClC(Br)Br` [dibromochloromethane] as the compound, how does the “Henry solubility constant Hcp” value read?
A: 0.0085

Q: With `ClCCl` [dichloromethane] as the compound, how does the “Henry solubility constant Hcp” value read?
A: 0.0036

Q: With `CCc1ccccc1` [ethylbenzene] as the compound, how does the “Henry solubility constant Hcp” value read?
A: 0.0012

Q: With `ClC(Cl)(Cl)C(Cl)(Cl)Cl` [hexachloroethane] as the compound, how does the “Henry solubility constant Hcp” value read?
A: 0.0025

Q: Which “Henry solubility constant Hcp” value does the source give for `Cc1ccccc1` [methylbenzene] here?
A: 0.0015

Q: For `CC(C)=O` [propanone], which “Henry solubility constant Hcp” value is on record?
A: 0.3

Q: For `ClC(Cl)=C(Cl)Cl` [tetrachloroethene], which “Henry solubility constant Hcp” value is on record?
A: 0.00058

Q: Which “Henry solubility constant Hcp” value does the source give for `ClC(Cl)(Cl)Cl` [tetrachloromethane] here?
A: 0.00034

Q: Which “Henry solubility constant Hcp” value does the source give for `BrC(Br)Br` [tribromomethane] here?
A: 0.017

Q: For `ClC=C(Cl)Cl` [trichloroethene], which “Henry solubility constant Hcp” value is on record?
A: 0.00099
